# Laboratory results reported in patent US12377069B2, “Compounds, compositions, methods of using, and methods for preparing compounds” (UNIVERSITY OF LOUISVILLE RESEARCH FOUNDATION, INC., priority 2018, dated 2025).
# Columns and labels:
# [1] = test system: 5FU resistant (5FUR) colon cancer cell lines; experiment: Cell viability of 5FU resistant colon cancer cell lines; format: cell-based; details: combination of 5FU
# [2] = test system: Cyp1A1; experiment: Cyp1A1 enzyme activity in colon and liver microsomes of treated mice; format: in vivo, mouse; details: 1 week; for Cyp1A1 activity in colon tissues compared to BNF and FICZ treated mice: UroA/UAS03 oral 20 mg/kg/day, FICZ i.p.; for Cyp1A1 activity increase in colons: i.p., UroA/UAS03 5 mg/kg/day, FICZ 1 μg/mouse/day; for Cyp1A1 activity in colon and liver, AhR^−/− mice / Cyp1A1 activity in colon and liver, wild type mice: oral 20 mg/kg, EROD
# Procedure: Measurements of Cyp1A1 enzyme activity (Ex vivo): Mice were treated with Vehicle or UroA or UAS03, BNF or FICZ daily for one week at indicated concentration either through oral or i.p. route. After one week, mice were euthanized and the colon and liver tissues were dissected. Microsomes from these tissues were prepared using the following procedure (SINGH et al., (2013) “Evaluation of memory enhancing clinically available standardized extract of Bacopa monniera on P-glycoprotein and cytochrome P450 3A in Sprague-Dawley rats” PloS one, Vol. 8, Article e72517). For hepatic microsomes, liver was first perfused with 0.9% sodium chloride solution and excised out. Adhering blood and saline was removed by blotting on tissue paper and tissue was homogenized in tissue homogenization buffer (50 mM Tris-HCl, pH 7.4 with 250 mM sucrose). Homogenate was centrifuged at 10,000×g for 30 minutes at 4° C. supernatant obtained was further centrifuged at 105,000×g for 60 minutes at 4° C. The pellet was washed with homogenization buffer and centrifuged again at 105,000×g for 60 minutes at 4° C. The pellet was suspended in homogenization buffer and used for protein and CYP assay. For intestinal microsome preparation, intestine was removed and washed with 0.9% sodium chloride. The intestine was longitudinally cut open to expose mucosal layer and mucosa was scrapped with help of glass slide. The scraped tissue was collected in homogenization buffer (50 mM Tris-HCl buffer containing glycerol (20% v/v), protease inhibitor (1%) and heparin (3 U/ml)). This suspended mucosa was homogenized and centrifuged at 10,000×g for 20 minutes at 4° C. Supernatant obtained was further centrifuged at 105,000×g for 60 minutes at 4° C. The pellet was washed with buffer and centrifuged again at 105,000×g for 60 minutes at 4° C. The pellet was suspended homogenization buffer and used for protein and CYP enzymes assays.
# Ethoxyresorufin-O-deethylase (EROD) assay: The microsomal proteins (0.5 mg) were mixed with 200 μL Tris buffer (0.1 M, pH 7.4) containing ethoxyresorufin (0.01 mM). To start reaction, NADPH (0.1 mM) was added and incubated at 37° C. for 10 min. After 10 min, reaction was terminated by adding equal volume of acetonitrile and reaction mixture was centrifuged at 13000×g for 10 min at 4° C. Supernatant was used to determine resorufin by measuring fluorescence (Ex. 530 nm, Em. 580 nm). Pure resorufin (Sigma Aldrich) was used to generate standard curve.
# P450-Glo Cyp1A1 luminiscence assay: The above microsomes (20 μg) were used for P450-Glo Cyp1A1 luminiscence assays as per manufacturer's instructions.
# [3] = test system: HeLa cells; experiment: Autophagy induction (RFP-GFP-LC3); format: cell-based; details: 2 hours treatment
# Procedure: Autophagy induction after compound treatment for 2 hours is assessed by the presence of red and green punctate inside the cells. The HeLa cells were transfected with RFP-GFP-LC3 plasmid 48 hours prior to drug treatments. After drug treatment for 2 hours the cells are fixed and imaged. LC3 is a protein that is expressed on autophagosomes and is seen as green puncta. When the autophagosome and lysosome fuse to form autolysosomes, the acidic pH inside of it causes degradation of GFP protein and only red puncta are visible (FIG. 26).
# [4] = test system: Nrf2^−/− mice; experiment: TNBS-induced colitis in Nrf2^−/− mice; format: in vivo, mouse; details: 20 mg/kg every 12 h post TNBS
# Procedure: FIG. 7: UroA/UAS03 utilize Nrf2 pathways to mitigate colitis. (A-F) Colitis was induced using TNBS in C57BL/6 (WT) and Nrf2^−/− mice (n=4-5/group 7-8 week old age). Mice were treated with Veh or UroA/UAS03 (20 mg/kg bodyweight) every 12 h post TNBS administration ending at 72 h. Representative data from two independent experiments is shown. (A) TNBS-induced colitis experimental design and treatment regimen. (B) Percent body weight loss (No TNBS− Solid black line; Veh+TNBS− Solid red line; UroA+TNBS− Solid blue line; UAS03+TNBS− Solid purple line), (C) representative colon images, (D) colon lengths, (E) gut permeability, (F) serum levels of IL-6 and TNF-α were determined. Statistical analysis was performed (unpaired t-test) using Graphpad Prism software. Error bars, ±SEM ***p<0.001; **p<0.01 *p<0.05.
# 2,4,6-Trinitrobenzenesulfonic acid (TNBS)-induced colitis: Male C57BL/6 or Nrf2^−/− mice (6-8 week old age mice) were anesthetized with ketamine/xylazine (100 mg/12.5 mg/kg IP) mixture and administered with single dose of TNBS (2.5 mg/mice; Sigma Aldrich, USA) in 50% ethanol. After administration of TNBS, mice were held upside down for 30-60 sec to ensure proper distribution of TNBS in the colon. Control group received 50% ethanol without TNBS. Mice with TNBS were randomly divided into three groups, viz. vehicle (0.25% sodium carboxymethylcellulose (CMC)), UroA and UAS03. UroA or UAS03 was resuspended in 0.25% sodium-CMC at desired concentrations. The mice were given orally Veh or UroA or UAS03 in 100 μl at desired concentrations (4 or 20 mg/kg/body weight). The treatment started after 12 hours of TNBS administration and every 12 hours thereafter up to 72 hours. The experiment was terminated post 60 h TNBS, where AhR^−/− mice were involved. In some experiments, we treated only once at post 12 h TNBS administration. TNBS administered and control mice were euthanized for tissue and plasma collection after 80 hours of TNBS/ethanol treatment. Mice were examined for colitis phenotype.
# [5] = test system: colon explants; experiment: Colon explant culture; set-up: species or system mouse; details: 50 μM, 24 h
# Procedure: Colon explant culture: Colon tissue pieces (0.5-1 cm length) from wild type (C57BL/6) or Nrf2^−/− or AhR^−/− mice were cultured in triplicates for 24 h in complete DMEM-high glucose medium (supplemented with 10% fetal bovine serum, 1× penicillin-streptomycin solution) in a humidified atmosphere in the presence of vehicle (0.01% DMSO), UroA (50 μM) or UAS03 (50 μM). The tissues were processed for protein preparation (tissue lysates with RIPA plus buffer) or total RNA isolation. These tissue lysates or RNA were used to determine the expression of Nrf2, Cldn4 and AhR.
structure (smiles),measurement,setting,value
"Oc1ccc2c(c1)COc1cc(O)ccc1-2 [UAS03, 6H-benzo[c]chromene-3,8-diol]","cell viability of 5FUR colon cancer cell lines, combination with 5FU",[1],reduced cell viability
same,Cyp1A1 activity in colon tissues compared to BNF and FICZ treated mice,[2],relatively more Cyp1A1 activity in colon tissues
same,Cyp1A1 activity increase in colons,[2],~3 fold
same,"Cyp1A1 activity in colon and liver, AhR^−/− mice",[2],but not in AhR^−/− mice
same,"Cyp1A1 activity in colon and liver, wild type mice",[2],activated Cyp1A1 activity
same,autophagy induction,[3],induce autophagy
same,barrier function (FITC-dextran leakage) in Nrf2^−/− mice,[4],did not enhance barrier function
same,body weight loss and colon shortening in Nrf2^−/− mice,[4],did not appear to restore body weight loss
same,serum IL-6 and TNF-α levels in Nrf2^−/− mice,[4],partially reduced
same,Cldn4 and NQO1 in Nrf2^−/− and AhR^−/− colon explants,[5],did not appear to induce
same,"expression of Nrf2, NQO1 and Cldn4 in WT colon explants",[5],induced the expression
"O=c1oc2cc(O)ccc2c2ccc(O)cc12 [UroA, 3,8-dihydroxy-6H-dibenzo[b,d]pyran-6-one]","cell viability of 5FUR colon cancer cell lines, combination with 5FU",[1],reduced cell viability
same,Cyp1A1 activity in colon tissues compared to BNF and FICZ treated mice,[2],relatively more Cyp1A1 activity in colon tissues
same,Cyp1A1 activity increase in colons,[2],~3 fold
same,"Cyp1A1 activity in colon and liver, AhR^−/− mice",[2],but not in AhR^−/− mice
same,"Cyp1A1 activity in colon and liver, wild type mice",[2],activated Cyp1A1 activity
same,autophagy induction,[3],induce autophagy
same,barrier function (FITC-dextran leakage) in Nrf2^−/− mice,[4],did not enhance barrier function
same,body weight loss and colon shortening in Nrf2^−/− mice,[4],did not appear to restore body weight loss
same,serum IL-6 and TNF-α levels in Nrf2^−/− mice,[4],partially reduced
same,Cldn4 and NQO1 in Nrf2^−/− and AhR^−/− colon explants,[5],did not appear to induce
same,"expression of Nrf2, NQO1 and Cldn4 in WT colon explants",[5],induced the expression
